Experimental data from patent US9957173B2, “Treatment of water” (BWA WATER ADDITIVES UK LIMITED, priority 2015, dated 2018).

Legend:
[1] = test system: Desulfovibrio vulgaris; assay: Log10 reduction in viable count of anaerobes after treatment of inoculated high-TDS aqueous system; format: cell-based; conditions: for Log10 Reduction Anaerobes: TDS 30,000 mg l^−1, 5 = complete kill
Procedure: (§1) Aqueous systems inoculated with anaerobe and facultative anaerobe culture and having a total dissolved solids (TDS) concentration of 30,000 mg l^−1 were prepared and treated with treatment agents comprising: (a) a phosphonium compound and (b) a nitro compound. The phosphonium compound (a) used was tri n-butyl n-tetradecyl phosphonium chloride (TTPC). The nitro compound (b) used was 2-hydroxymethyl-2-nitro-1,3-propanediol (THNM).
(§2) A suspension of Desulfovibrio vulgaris plus Enterobacter aerogenes bacteria containing from 1×10^5 to 1×10^6 cells/mL was prepared in sterile pH 8 phosphate buffer containing sodium chloride to give the desired total dissolved solids (TDS) concentration. Aliquots of this suspension were dosed with the indicated concentrations of the compounds (a) and (b) with the concentrations being measured as ppm. The mixtures were allowed to stand at room temperature. At the designated contact times, each mixture was sampled to determine the total number of viable cells of both Desulfovibrio vulgaris and Enterobacter aerogenes by serial 10-fold dilution into API RP 38 media vials and anaerobic acid producing media vials, respectively. The vials were incubated at 37° C. for 72 hours. Results were recorded as log10 reduction in the viable count versus the control.
(§3) The efficacy of the treatment agents was evaluated by measuring the Log10 Reduction of the anaerobic bacterium Desulfovibrio vulgaris and the facultative anaerobic bacterium Enterobacter aerogenes after contact times of 1 hour, 4 hours and 24 hours as detailed in Table 1. For TTPC the stated ppm value relates to the amount of TTPC added (active). For the THNM the stated ppm relates to the amount of THNM added (active).

[2] = test system: Enterobacter aerogenes; assay: Log10 reduction in viable count of facultative anaerobes after treatment of inoculated high-TDS aqueous system; format: cell-based; conditions: for Log10 Reduction Facultative Anaerobes: TDS 30,000 mg l^−1, 8 = complete kill
Procedure: as §1, §2, §3

[3] = Example 3: THNM 75 ppm active alone, contact time 1 hour
[4] = Example 4: THNM 150 ppm active alone, contact time 1 hour
[5] = Example 11: THNM 75 ppm active alone, contact time 4 hours
[6] = Example 12: THNM 150 ppm active alone, contact time 4 hours
[7] = Example 19: THNM 75 ppm active alone, contact time 24 hours
[8] = Example 20: THNM 150 ppm active alone, contact time 24 hours
[9] = THNM alone, even at concentrations of 150 ppm
[10] = Example 1: TTPC 3.125 ppm active alone, contact time 1 hour
[11] = Example 2: TTPC 6.25 ppm active alone, contact time 1 hour
[12] = Example 9: TTPC 3.125 ppm active alone, contact time 4 hours
[13] = Example 10: TTPC 6.25 ppm active alone, contact time 4 hours
[14] = Example 17: TTPC 3.125 ppm active alone, contact time 24 hours
[15] = Example 18: TTPC 6.25 ppm active alone, contact time 24 hours

O=[N+]([O-])C(CO)(CO)CO [THNM, 2-hydroxymethyl-2-nitro-1,3-propanediol]
Log10 Reduction Anaerobes [1, 3]: 0 | Log10 Reduction Anaerobes [1, 4]: 0 | Log10 Reduction Anaerobes [1, 5]: 0 | Log10 Reduction Anaerobes [1, 6]: 0 | Log10 Reduction Anaerobes [1, 7]: 0 | Log10 Reduction Anaerobes [1, 8]: 0 | effect on anaerobes [1, 9]: no affect | Log10 Reduction Facultative Anaerobes [2, 3]: 0 | Log10 Reduction Facultative Anaerobes [2, 4]: 0 | Log10 Reduction Facultative Anaerobes [2, 5]: 0 | Log10 Reduction Facultative Anaerobes [2, 6]: 0 | Log10 Reduction Facultative Anaerobes [2, 7]: 0 | Log10 Reduction Facultative Anaerobes [2, 8]: 0 | effect on facultative anaerobes [2, 9]: no affect

CCCCCCCCCCCCCC[P+](CCCC)(CCCC)CCCC.[Cl-] [TTPC, tri n-butyl n-tetradecyl phosphonium chloride]
Log10 Reduction Anaerobes [1, 10]: 0 | Log10 Reduction Anaerobes [1, 11]: 1 | Log10 Reduction Anaerobes [1, 12]: 5 | Log10 Reduction Anaerobes [1, 13]: 5 | Log10 Reduction Anaerobes [1, 14]: 5 | Log10 Reduction Anaerobes [1, 15]: 5 | Log10 Reduction Facultative Anaerobes [2, 10]: 1 | Log10 Reduction Facultative Anaerobes [2, 11]: 3 | Log10 Reduction Facultative Anaerobes [2, 12]: 2 | Log10 Reduction Facultative Anaerobes [2, 13]: 4 | Log10 Reduction Facultative Anaerobes [2, 14]: 3 | Log10 Reduction Facultative Anaerobes [2, 15]: 5
